{
  "source": "ChEMBL document CHEMBL1139848",
  "about": "“Structure-guided optimization of estrogen receptor binding affinity and antagonist potency of pyrazolopyrimidines with basic side chains” (J Med Chem, 2007)",
  "key": {"Estrogen receptor [1]": {"biological_target": "T1, Estrogen receptor (Homo sapiens, UniProt P03372)", "T1 sequence (P03372 whole entry)": "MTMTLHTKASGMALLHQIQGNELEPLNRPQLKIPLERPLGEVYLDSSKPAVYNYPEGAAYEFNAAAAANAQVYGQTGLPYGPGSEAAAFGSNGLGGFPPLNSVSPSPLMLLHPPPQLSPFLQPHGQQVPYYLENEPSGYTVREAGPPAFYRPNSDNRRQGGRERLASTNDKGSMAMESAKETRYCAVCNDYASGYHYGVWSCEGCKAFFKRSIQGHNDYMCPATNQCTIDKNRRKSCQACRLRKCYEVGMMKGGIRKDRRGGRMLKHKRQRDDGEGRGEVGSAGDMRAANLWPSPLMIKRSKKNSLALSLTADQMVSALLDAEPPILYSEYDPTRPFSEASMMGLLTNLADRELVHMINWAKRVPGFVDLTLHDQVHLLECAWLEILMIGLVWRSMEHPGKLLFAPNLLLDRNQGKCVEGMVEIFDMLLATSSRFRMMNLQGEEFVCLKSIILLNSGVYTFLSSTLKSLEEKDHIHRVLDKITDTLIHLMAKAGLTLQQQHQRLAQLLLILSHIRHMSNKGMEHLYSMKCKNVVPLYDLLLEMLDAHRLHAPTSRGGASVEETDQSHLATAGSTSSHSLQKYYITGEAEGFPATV", "assay": "Antagonist potency at ERalpha expressed in human HEC1 cells by luciferase reporter gene assay", "assay_type": "functional, cell-based, HEC-1"}, "Estrogen receptor beta [2]": {"biological_target": "T2, Estrogen receptor beta (Homo sapiens, UniProt Q92731)", "T2 sequence (Q92731 whole entry)": "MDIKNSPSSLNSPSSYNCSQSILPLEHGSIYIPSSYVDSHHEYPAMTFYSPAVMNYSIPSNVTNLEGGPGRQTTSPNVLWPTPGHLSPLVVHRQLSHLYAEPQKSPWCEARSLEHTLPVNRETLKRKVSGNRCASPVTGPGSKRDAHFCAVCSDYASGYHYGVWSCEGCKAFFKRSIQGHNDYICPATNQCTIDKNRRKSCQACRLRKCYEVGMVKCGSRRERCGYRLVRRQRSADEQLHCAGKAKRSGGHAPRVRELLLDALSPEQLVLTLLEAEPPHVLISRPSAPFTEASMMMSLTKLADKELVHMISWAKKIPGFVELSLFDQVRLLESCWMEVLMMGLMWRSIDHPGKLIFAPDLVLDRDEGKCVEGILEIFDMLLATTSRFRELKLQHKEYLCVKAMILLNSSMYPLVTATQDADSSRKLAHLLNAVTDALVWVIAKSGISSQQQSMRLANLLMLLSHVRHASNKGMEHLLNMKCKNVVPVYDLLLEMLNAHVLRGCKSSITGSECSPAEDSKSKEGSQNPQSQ", "assay": "Antagonist potency at ERbeta expressed in human HEC1 cells by luciferase reporter gene assay", "assay_type": "functional, cell-based, HEC-1"}, "Estrogen receptor [3]": {"biological_target": "T1, Estrogen receptor", "assay": "Binding affinity to ERalpha"}, "Estrogen receptor beta [4]": {"biological_target": "T2, Estrogen receptor beta", "assay": "Binding affinity to ERbeta"}},
  "data": [
    {"smiles": "Oc1ccc(-c2nn3c(C(F)(F)F)cc(C(F)(F)F)nc3c2-c2ccc(OCCN3CCCCC3)cc2)cc1", "values": [
      {"measurement": "IC50", "setting": "Estrogen receptor [1]", "result": 90, "unit": "nM"},
      {"measurement": "IC50", "setting": "Estrogen receptor beta [2]", "result": 40, "unit": "nM"},
      {"measurement": "Ki", "setting": "Estrogen receptor [3]", "result": 7, "unit": "nM"},
      {"measurement": "Ki", "setting": "Estrogen receptor beta [4]", "result": 71, "unit": "nM"}
    ]},
    {"smiles": "Oc1ccc(-c2nn3c(C(F)(F)F)cc(C(F)(F)F)nc3c2-c2ccc(O)cc2)cc1", "values": [
      {"measurement": "IC50", "setting": "Estrogen receptor [1]", "result": 6000, "unit": "nM"},
      {"measurement": "IC50", "setting": "Estrogen receptor beta [2]", "result": 600, "unit": "nM"},
      {"measurement": "Ki", "setting": "Estrogen receptor [3]", "result": 26, "unit": "nM"},
      {"measurement": "Ki", "setting": "Estrogen receptor beta [4]", "result": 48, "unit": "nM"}
    ]},
    {"smiles": "CN(C)CCOc1ccc(-c2nn3c(C(F)(F)F)cc(C(F)(F)F)nc3c2-c2ccc(O)cc2)cc1", "values": [
      {"measurement": "Ki", "setting": "Estrogen receptor [3]", "result": 408, "unit": "nM"},
      {"measurement": "Ki", "setting": "Estrogen receptor beta [4]", "result": 156, "unit": "nM"}
    ]},
    {"smiles": "Oc1ccc(-c2c(-c3ccc(OCCN4CCCCC4)cc3)nn3c(C(F)(F)F)cc(C(F)(F)F)nc23)cc1", "values": [
      {"measurement": "Ki", "setting": "Estrogen receptor [3]", "result": 266, "unit": "nM"},
      {"measurement": "Ki", "setting": "Estrogen receptor beta [4]", "result": 192, "unit": "nM"}
    ]},
    {"smiles": "Oc1ccc(-c2nn3c(C(F)(F)F)cc(C(F)(F)F)nc3c2-c2ccccc2)cc1", "values": [
      {"measurement": "Ki", "setting": "Estrogen receptor [3]", "result": 51, "unit": "nM"},
      {"measurement": "Ki", "setting": "Estrogen receptor beta [4]", "result": 122, "unit": "nM"}
    ]},
    {"smiles": "CN(C)CCOc1ccc(-c2c(-c3ccc(O)cc3)nn3c(C(F)(F)F)cc(C(F)(F)F)nc23)cc1", "values": [
      {"measurement": "IC50", "setting": "Estrogen receptor [1]", "result": 1000, "unit": "nM"},
      {"measurement": "IC50", "setting": "Estrogen receptor beta [2]", "result": 250, "unit": "nM"},
      {"measurement": "Ki", "setting": "Estrogen receptor [3]", "result": 47, "unit": "nM"},
      {"measurement": "Ki", "setting": "Estrogen receptor beta [4]", "result": 178, "unit": "nM"}
    ]},
    {"smiles": "Oc1ccc(-c2nn3cc(O)cnc3c2-c2ccc(O)cc2)cc1", "values": [
      {"measurement": "Ki", "setting": "Estrogen receptor [3]", "result": 3330, "unit": "nM"},
      {"measurement": "Ki", "setting": "Estrogen receptor beta [4]", "result": 1520, "unit": "nM"}
    ]},
    {"smiles": "Oc1ccc(-c2c(-c3ccccc3)nn3c(C(F)(F)F)cc(C(F)(F)F)nc23)cc1", "values": [
      {"measurement": "Ki", "setting": "Estrogen receptor [3]", "result": 2220, "unit": "nM"},
      {"measurement": "Ki", "setting": "Estrogen receptor beta [4]", "result": 139, "unit": "nM"}
    ]}
  ]
}
